Test results: US11952593B2, “Detection and treatment of daughter number variations in cancer cells” (PharmacoGenetics Limited, priority 2020, dated 2024)

Key:
[1] = system: non-cancerous RPE1 retina epithelial cells; test: Time-lapse microscopy count of multi-daughter divisions (DNV frequency), RPE1; assay type: cell-based; conditions: RPE1, 24 hours; wogonin 50 μM, 5-FU 20 μM
Method: (§1) To investigate DNVs, the human HepG2 hepatocellular carcinoma, HeLa cervical adenocarcinoma, and A549 lung adenocarcinoma cell lines, as well as the non-cancerous RPE1 line of hTRET-immortalized retina epithelial cells, were obtained from the American Type Culture Collection (ATCC, Manassas, Va., USA) and cultivated in Dulbecco's Modified Eagle Medium (DMEM) supplemented with 10% fetal bovine serum (Gemini Bio-Products, Sacramento. Calif.) under a humidified atmosphere of 5% C02 at 37° C. After 24 hours, the old medium was replaced by acidic DMEM growth medium buffered by 15 mM 2-(N-morpholino)-ethanesulfonic acid.HCl (MES) at pH 6.4, neutral DMEM growth medium buffered by 15 mM 3-(N-morpholino)propanesulfonic acid.HCl (MOPS) at pH 7.4, alkaline growth medium buffered by 15 mM tris(hydroxymethyl)aminomethane.HCl (Tris) at pH 8.4, or neutral DMEM growth medium containing wogonin (50 μM) or 5-FU (20 μM). Using phase contrast microscopy, time-lapse photographs were recorded at different positions of the wells at 15-minute intervals for 24 hours using the Nikon ECLIPSE Ti Live Cell Imaging Observatory, enabling the count of P1 through P8 patterns at the end of Stage 2 of the DNV process (FIG. 1). All the images were photographed at 100× magnification. Altemately, using fluorescence microscopy, the cells were seeded into 12 well plates at 1×10^3 per well and stained with Hoechst 33342 ([…], Thermofisher) for 30 minutes in an incubator at 37° C. After 30 minutes, culture medium was replaced by various treatment media and placed under the Nikon ECLIPSE Ti Live Cell Imaging Observatory for 24 hours. For the HeLa, HepG2 and A549 cells, the various treatments were also extended to 5 days. Because the RPE1 cells yielded no DNVs after 24 hours of drug treatment, its treatment periods were not extended beyond 24 hours. All the cells were manually traced and quantified using the ImageJ software. DNV frequencies were estimated by dividing the total number of multi-daughter ([…]) divisions by the total number of cell divisions. Fluorescence staining and time-lapse microscopy were employed to differentiate between the bi-, tri-, tetra- and penta-daughter cell divisions, and to estimate the percentages of the P1 through P8 patterns in the final daughter cells generated by each of the DNV events. GraphPad Prism 5.0 software was employed for statistical analysis, and the results were presented as the mean. Significance was determined using the Student t-test (two-tailed, unpaired/unequal variances).

[2] = system: HeLa cervical adenocarcinoma cells; test: Time-lapse microscopy count of multi-daughter divisions (DNV frequency), HeLa; assay type: cell-based, human; conditions: wogonin 50 μM, 5-FU 20 μM
Method: as §1

[3] = system: HepG2 hepatocellular carcinoma cells; test: Time-lapse microscopy count of multi-daughter divisions (DNV frequency), HepG2; assay type: cell-based, human; conditions: wogonin 50 μM, 5-FU 20 μM
Method: as §1

## O=c1[nH]cc(F)c(=O)[nH]1 [5-FU, 5-flurouracil]
[1]
  Bi-daughter divisions, % of total divisions: 100%
  Bi-daughter divisions, number: 15
  Sum of Multi-daughter Divisions, number: 0
  Total number of observed divisions: 15
  Tri-daughter divisions, number: 0
[2]; 24 hours
  Bi-daughter divisions, % of total divisions: 99.0%
  Bi-daughter divisions, number: 3264
  Sum of Multi daughter Divisions, % of total mitotic divisions: 0.97%
  Sum of Multi daughter Divisions, number: 32
  Tetra-daughter divisions, % of total divisions: 0.09%
  Tetra-daughter divisions, number: 3
  Total number of observed divisions: 3296 (100)
  Tri-daughter divisions, % of total divisions: 0.88%
  Tri-daughter divisions, number: 29
  ≥Tetra-daughter divisions, number: 0
[2]; 5 days
  Bi-daughter divisions, % of total divisions: 91.8%
  Bi-daughter divisions, number: 143
  Sum of Multi-daughter Divisions, % of total mitotic divisions: 8.3%
  Sum of Multi-daughter Divisions, number: 13
  Tetra-daughter divisions, number: 0
  Total Divisions: 156 (100)
  Tri-daughter divisions, % of total divisions: 8.3%
  Tri-daughter divisions, number: 13
  ≥Tetra-daughter divisions, number: 0
[3]; HepG2, 24 hours
  Bi-daughter divisions, % of total divisions: 99.1%
  Bi-daughter divisions, number: 1995
  Sum of Multi daughter Divisions, % of total mitotic divisions: 0.94%
  Sum of Multi daughter Divisions, number: 19
  Tetra-daughter divisions, % of total divisions: 0.25%
  Tetra-daughter divisions, number: 5
  Total number of observed divisions: 2014 (100)
  Tri-daughter divisions, % of total divisions: 0.69%
  Tri-daughter divisions, number: 14
  ≥Tetra-daughter divisions, number: 0
[3]; HepG2, 5 days
  Bi-daughter divisions, % of total divisions: 90.6%
  Bi-daughter divisions, number: 270
  Sum of Multi-daughter Divisions, % of total mitotic divisions: 9.30%
  Sum of Multi-daughter Divisions, number: 28
  Tetra-daughter divisions, % of total divisions: 2.6%
  Tetra-daughter divisions, number: 8
  Total Divisions: 298 (100)
  Tri-daughter divisions, % of total divisions: 5.7%
  Tri-daughter divisions, number: 17
  ≥Tetra-daughter divisions, % of total divisions: 1.0%
  ≥Tetra-daughter divisions, number: 3

## COc1c(O)cc(O)c2c(=O)cc(-c3ccccc3)oc12 [Wogonin, wogonin]
[1]
  Bi-daughter divisions, % of total divisions: 100%
  Bi-daughter divisions, number: 106
  Sum of Multi-daughter Divisions, number: 0
  Total number of observed divisions: 106
  Tri-daughter divisions, number: 0
[2]; 24 hours
  Bi-daughter divisions, % of total divisions: 98.3%
  Bi-daughter divisions, number: 3041
  Sum of Multi daughter Divisions, % of total mitotic divisions: 1.70%
  Sum of Multi daughter Divisions, number: 53
  Tetra-daughter divisions, % of total divisions: 0.19%
  Tetra-daughter divisions, number: 6
  Total number of observed divisions: 3094 (100)
  Tri-daughter divisions, % of total divisions: 1.54%
  Tri-daughter divisions, number: 47
  ≥Tetra-daughter divisions, number: 0
[2]; 5 days
  Bi-daughter divisions, % of total divisions: 84%
  Bi-daughter divisions, number: 205
  Sum of Multi-daughter Divisions, % of total mitotic divisions: 16.3%
  Sum of Multi-daughter Divisions, number: 40
  Tetra-daughter divisions, % of total divisions: 2.4%
  Tetra-daughter divisions, number: 6
  Total Divisions: 245 (100)
  Tri-daughter divisions, % of total divisions: 13.0%
  Tri-daughter divisions, number: 32
  ≥Tetra-daughter divisions, % of total divisions: 0.8%
  ≥Tetra-daughter divisions, number: 2
[3]; HepG2, 24 hours
  Bi-daughter divisions, % of total divisions: 97.0%
  Bi-daughter divisions, number: 2482
  Sum of Multi daughter Divisions, % of total mitotic divisions: 2.97%
  Sum of Multi daughter Divisions, number: 76
  Tetra-daughter divisions, % of total divisions: 0.70%
  Tetra-daughter divisions, number: 18
  Total number of observed divisions: 2558 (100)
  Tri-daughter divisions, % of total divisions: 2.19%
  Tri-daughter divisions, number: 56
  ≥Tetra-daughter divisions, % of total divisions: 0.08%
  ≥Tetra-daughter divisions, number: 2
[3]; HepG2, 5 days
  Bi-daughter divisions, % of total divisions: 83.9%
  Bi-daughter divisions, number: 262
  Sum of Multi-daughter Divisions, % of total mitotic divisions: 16.0%
  Sum of Multi-daughter Divisions, number: 50
  Tetra-daughter divisions, % of total divisions: 3.8%
  Tetra-daughter divisions, number: 12
  Total Divisions: 312 (100)
  Tri-daughter divisions, % of total divisions: 16.0%
  Tri-daughter divisions, number: 50
  ≥Tetra-daughter divisions, % of total divisions: 2.5%
  ≥Tetra-daughter divisions, number: 8
[3]; HepG2, 5 days, listed as wogonin
  Sum of Multi-daughter Divisions, % of total mitotic divisions: 18.0%
